The values that follow come from patent US11161848B2, “Purinones as ubiquitin-specific protease 1 inhibitors” (FORMA Therapeutics, Inc., priority 2015, dated 2021).

The experiment concerns the target USP1, construct USP1 (I-785, GG670, 671AA)/UAF1 (I-677)-Flag (Homo sapiens (Human), UniProt O94782, G670A/G671A). Put plainly: Ubiquitin-Rhodamine 110 assay for USP1 activity, follow-up IC50 format. The format is biochemical.

Sequence of USP1, construct USP1 (I-785, GG670, 671AA)/UAF1 (I-677)-Flag (O94782 whole entry G670A/G671A): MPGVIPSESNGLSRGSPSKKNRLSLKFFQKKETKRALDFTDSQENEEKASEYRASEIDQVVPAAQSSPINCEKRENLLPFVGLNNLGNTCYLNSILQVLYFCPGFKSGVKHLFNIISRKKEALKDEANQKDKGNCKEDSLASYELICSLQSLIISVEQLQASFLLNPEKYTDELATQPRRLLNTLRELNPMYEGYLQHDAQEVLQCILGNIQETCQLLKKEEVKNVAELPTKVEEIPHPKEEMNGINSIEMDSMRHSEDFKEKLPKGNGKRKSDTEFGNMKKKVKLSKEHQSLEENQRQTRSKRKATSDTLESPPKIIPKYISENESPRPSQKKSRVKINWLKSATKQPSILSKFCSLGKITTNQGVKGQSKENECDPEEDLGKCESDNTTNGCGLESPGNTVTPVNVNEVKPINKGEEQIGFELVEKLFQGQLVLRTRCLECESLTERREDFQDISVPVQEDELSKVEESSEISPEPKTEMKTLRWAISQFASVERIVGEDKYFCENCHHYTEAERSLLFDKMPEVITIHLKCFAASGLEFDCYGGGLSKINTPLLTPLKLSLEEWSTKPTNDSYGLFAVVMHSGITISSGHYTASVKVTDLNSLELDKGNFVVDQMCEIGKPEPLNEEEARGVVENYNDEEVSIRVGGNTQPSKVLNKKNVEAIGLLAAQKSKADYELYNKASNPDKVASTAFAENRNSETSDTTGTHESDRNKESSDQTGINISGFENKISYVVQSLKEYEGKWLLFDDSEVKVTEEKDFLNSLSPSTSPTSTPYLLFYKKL
Sequence of USP1, construct USP1 (I-785, GG670, 671AA)/UAF1 (I-677)-Flag (Q8TAF3 whole entry partner): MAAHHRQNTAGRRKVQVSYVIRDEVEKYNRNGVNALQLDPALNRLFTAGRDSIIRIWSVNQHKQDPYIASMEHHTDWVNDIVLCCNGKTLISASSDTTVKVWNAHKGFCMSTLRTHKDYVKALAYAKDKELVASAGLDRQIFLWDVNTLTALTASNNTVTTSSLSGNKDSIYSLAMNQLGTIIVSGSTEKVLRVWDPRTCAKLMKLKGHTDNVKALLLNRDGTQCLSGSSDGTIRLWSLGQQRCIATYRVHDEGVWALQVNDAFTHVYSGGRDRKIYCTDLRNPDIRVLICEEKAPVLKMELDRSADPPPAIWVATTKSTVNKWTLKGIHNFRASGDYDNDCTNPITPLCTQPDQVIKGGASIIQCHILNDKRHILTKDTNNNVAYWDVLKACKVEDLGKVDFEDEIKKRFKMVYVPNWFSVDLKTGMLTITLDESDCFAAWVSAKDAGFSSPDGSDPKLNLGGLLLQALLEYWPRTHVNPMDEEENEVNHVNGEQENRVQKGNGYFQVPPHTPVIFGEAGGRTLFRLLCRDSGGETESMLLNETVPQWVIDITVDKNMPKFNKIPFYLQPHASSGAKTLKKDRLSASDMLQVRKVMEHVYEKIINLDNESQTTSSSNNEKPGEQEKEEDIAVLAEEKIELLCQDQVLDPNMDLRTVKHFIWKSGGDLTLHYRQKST

In turn, “9-(4-(1H-pyrazol-1-yl)benzyl)-2-(2-cyclopropylphenyl)-7,9- [Compound I-94]” gave a concentration for half-maximal inhibition (IC50) below 50 nM.
